This is an account of results in patent publication US6653321B1, “Naphthylsulfonic acids and related compounds as glucose uptake agonists” (Telik, Inc., priority 1999, dated 2003).

Bounds are passed on as bounds.

For orientation: EC50 means the concentration giving half of the maximal effect.

The target of assay [1] is T1, β-kinase domain of the human insulin receptor (CKD) (Homo sapiens, UniProt P06213).
T1 construct: The complete β-kinase domain of the human insulin receptor (CKD); made in house
In words: 32P-Cytoplasmic Kinase Domain (CKD) autophosphorylation assay. The conditions noted are these: 32P incorporated into CKD band, percentage of the vehicle (DMSO) level; 10 minutes at room temperature; compound concentration not given. Format: biochemical. Here is the method:
The complete β-kinase domain of the human insulin receptor (CKD) was expressed in, and purified from, baculovirus. CKD (4.0 μg/mL), in a solution of 50 mM Tris.HCl, 2 mM MnCl2, 10 mM MgCl2 (50 μl final volume), was combined with […] ATP, and 5 μCi ^32P-ATP (3000 Ci/mmol.). A test compound, or the vehicle (DMSO), was added to a final DMSO concentration of 1%. The mixture was incubated for 10 minutes at room temperature. The reaction was terminated by the addition of 10 μl of 200 mM EDTA. A 30 μl volume was removed, mixed with 5 μl of 6×Laemmeli sodium dodecyl sulfate (SDS) treatment buffer, and heated to 94° C. for 5 minutes. A 20 μl aliquot was then run on an SDS-PAGE gel. The radioactivity incorporated into the CKD band is quantified by phosphorimaging of the gel, or scintillation counting of the excised bands.
The potency of a compound for increasing phosphorylation is expressed as a percentage of the vehicle level.

Another assay has as its system 3T3 L1 fibroblasts. In words: Glucose transport activity (14C-2-deoxy-D-glucose uptake). The conditions noted are these: Mus musculus; differentiated 3T3 L1 cells, insulin 5.6 nM; concentration giving increase in glucose transport generally 150% of the vehicle control. Format: cell-based. Here is the method: 3T3 L1 fibroblasts (ATCC) were grown in Dulbecco's modified Eagle's medium (DMEM) with 10% fetal bovine serum (FBS, medium). The cells were plated at a density of 3×10^4 cells/well in 24-well plates. Two days after confluence was reached, the cells were treated for 3 days with 0.5 mM isobutylmethylxanthine (IBMX), 1 μM dexamethasone, supplemented with 1.7 μM insulin. The cells were then transferred to medium with 1.7 μM insulin for 2 more days. The cells were maintained in medium for an additional 4 days. Finally the cells were serum starved overnight in 0.1% bovine serum albumin (BSA) in DMEM.
The following day, the culture medium was replaced with 150 mM NaCl, 1.7 mM KCl, 0.9 mM CaCl2, 1.47 mM K2HPO4 (pH 7.4) to which was added either the experimental compounds, or their vehicle (DMSO). Insulin or its vehicle (0.01% BSA) was diluted in the assay buffer (containing test compound or vehicle, respectively) to a final concentration of 5.6 nM. After incubation for 30 min at 37° C. 5 μCi/mL ^14C-2-[…]-D-glucose was added, and the incubation was continued for additional 30 min at 37° C. The cells were then washed 3 times with ice-cold PBS/20 mM glucose and […] in 250 μl of lysis buffer (50 mM HEPES pH 7.6, 1% Triton X-100) for 30 min at room temperature. Radioactivity in the lysate was quantified by scintillation counting.
Once ^14C-2-deoxy-D-glucose is transported into the cell it is not released. Glucose transport is, therefore, proportional to the amount of radioactivity in the lysate. The concentration of compound necessary to produce an increase in glucose transport greater than the sum of the standard deviation of the vehicle control plus the largest standard deviation of a test sample (generally 150% of the vehicle control) was recorded as the EC (effective concentration).

T1 sequence (P06213 980-1382 limits assumed): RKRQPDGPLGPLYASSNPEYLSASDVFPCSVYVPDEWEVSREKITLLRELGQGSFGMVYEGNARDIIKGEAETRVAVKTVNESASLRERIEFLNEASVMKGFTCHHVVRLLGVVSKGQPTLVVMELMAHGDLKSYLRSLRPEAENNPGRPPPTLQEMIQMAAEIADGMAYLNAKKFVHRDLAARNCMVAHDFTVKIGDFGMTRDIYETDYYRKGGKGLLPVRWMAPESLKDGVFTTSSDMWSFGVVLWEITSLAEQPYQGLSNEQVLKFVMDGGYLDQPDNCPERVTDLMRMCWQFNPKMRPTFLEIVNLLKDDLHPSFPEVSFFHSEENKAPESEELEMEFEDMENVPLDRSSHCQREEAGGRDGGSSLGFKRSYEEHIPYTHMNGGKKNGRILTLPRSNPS

As for `O=C(Nc1cccc2cc(S(=O)(=O)O)ccc12)c1cc(NC(=O)c2cc(Cl)c(Cl)cc2C(=O)O)cc(C(=O)Nc2cccc3cc(S(=O)(=O)O)ccc23)c1` [Compound 18, 2-(N-{3,5-bis[N-(6-sulfonaphthyl)carbamoyl]phenyl}carbamoyl)-4,5-dichlorobenzoic acid], the “Activity (% Control)” value in assay [1] was determined as 95.3 % Control. Also, the EC50 in the assay on 3T3 L1 fibroblasts is > 250 µM. Take `CC(=O)Nc1cc(C(=O)Nc2cccc3cc(S(=O)(=O)O)ccc23)cc(C(=O)Nc2cccc3cc(S(=O)(=O)O)ccc23)c1` [Compound 23, 5-({3-(acetylamino)-5-[N-(6-sulfonaphthyl)carbamoyl]phenyl}carbonylamino)naphthalene-2-sulfonic acid]: in assay [1], the “Activity (% Control)” value came to 86.8 % Control. In the assay on 3T3 L1 fibroblasts, the EC50 was > 250 µM. Regarding `COc1cccc(C(=O)Nc2cc(C(=O)Nc3cccc4cc(S(=O)(=O)O)ccc34)cc(C(=O)Nc3cccc4cc(S(=O)(=O)O)ccc34)c2)c1` [Compound 13, 5-({3-[(3-methoxyphenyl)carbonylamino]-5-[N-(6-sulfonaphthyl)carbamoyl]phenyl}carbonylamino)naphthalene-2-sulfonic acid], in assay [1], the “Activity (% Control)” value is on record as 83.7 % Control. In the assay with 3T3 L1 fibroblasts, this molecule displayed an EC50 of 200 µM. On to `O=C(Nc1cc(C(=O)Nc2cccc3cc(S(=O)(=O)O)ccc23)cc(C(=O)Nc2cccc3cc(S(=O)(=O)O)ccc23)c1)c1ccccc1` [Compound 22, 5-({3-(phenylcarbonylamino)-5-[N-(6-sulfonaphthyl)carbamoyl]phenyl}carbonylamino)naphthalene-2-sulfonic acid], for which the “Activity (% Control)” value in assay [1] was 75.9 % Control. In the assay on 3T3 L1 fibroblasts, a half-maximal effect (EC50) was put at 200 µM.

`O=C(Nc1cccc2cc(S(=O)(=O)O)ccc12)c1cc(NC(=O)c2ccccc2C(=O)O)cc(C(=O)Nc2cccc3cc(S(=O)(=O)O)ccc23)c1` [Compound 17, 2-(N-{3,5-bis[N-(6-sulfonaphthyl)carbamoyl]phenyl}carbamoyl)benzoic acid]: the “Activity (% Control)” value in assay [1] amounted to 92.7 % Control. In the assay on 3T3 L1 fibroblasts, the EC50 is > 250 µM. On the same counts, the results for `Cc1ccc(OCC(=O)Nc2cc(C(=O)Nc3cccc4cc(S(=O)(=O)O)ccc34)cc(C(=O)Nc3cccc4cc(S(=O)(=O)O)ccc34)c2)cc1` [Compound 40, 5-({3-[2-(4-methylphenoxy)acetylamino]-5-[N-(6-sulfonaphthyl)carbamoyl]phenyl}carbonylamino)naphthalene-2-sulfonic acid] are 130.7 % Control and > 250 µM.

On to `O=C(Nc1cc(C(=O)Nc2cccc3cc(S(=O)(=O)O)ccc23)cc(C(=O)Nc2cccc3cc(S(=O)(=O)O)ccc23)c1)c1cccc(Cl)c1` [Compound 10, 5-({3-[(3-chlorophenyl)carbonylamino]-5-[N-(6-sulfonaphthyl)carbamoyl]phenyl}carbonylamino)naphthalene-2-sulfonic acid], for which, in assay [1], the “Activity (% Control)” value worked out at 123.1 % Control. The EC50 in the assay with 3T3 L1 fibroblasts amounted to 20 µM. In the case of `Cc1ccc(C(=O)Nc2cc(C(=O)Nc3cccc4cc(S(=O)(=O)O)ccc34)cc(C(=O)Nc3cccc4cc(S(=O)(=O)O)ccc34)c2)cc1` [Compound 8, 5-({3-[(4-methylphenyl)carbonylamino]-5-[N-(6-sulfonaphthyl)carbamoyl]phenyl}carbonylamino)naphthalene-2-sulfonic acid], the “Activity (% Control)” value in assay [1] came out at 130.5 % Control. The same molecule came in with a concentration for a half-maximal effect (EC50) in the assay on 3T3 L1 fibroblasts of 3 µM. For `O=C(Nc1cc(C(=O)Nc2cccc3cc(S(=O)(=O)O)ccc23)cc(C(=O)Nc2cccc3cc(S(=O)(=O)O)ccc23)c1)Nc1ccccc1Cl` [Compound 59, 5-[(3-{[(2-chlorophenyl)amino]carbonylamino}-5-[N-(6-sulfonaphthyl)carbamoyl]phenyl)carbonylamino]naphthalene-2-sulfonic acid], in assay [1], the “Activity (% Control)” value was determined as 120.4 % Control. Still for that read-out and setting: in the case of `Cc1ccccc1NC(=O)Nc1cc(C(=O)Nc2cccc3cc(S(=O)(=O)O)ccc23)cc(C(=O)Nc2cccc3cc(S(=O)(=O)O)ccc23)c1` [Compound 60, 5-[(3-{[(2-methylphenyl)amino]carbonylamino}-5-[N-(6-sulfonaphthyl)carbamoyl]phenyl)carbonylamino]naphthalene-2-sulfonic acid] it was 97.5 % Control. As to `O=C(Cc1cccc(Cl)c1)Nc1cc(C(=O)Nc2cccc3cc(S(=O)(=O)O)ccc23)cc(C(=O)Nc2cccc3cc(S(=O)(=O)O)ccc23)c1` [Compound 44, 5-({3-[2-(3-chlorophenyl)acetylamino]-5-[N-(6-sulfonaphthyl)carbamoyl]phenyl}carbonylamino)naphthalene-2-sulfonic acid], in assay [1], the “Activity (% Control)” value was 124.8 % Control.

In the case of `COc1ccc(CC(=O)Nc2cc(C(=O)Nc3cccc4cc(S(=O)(=O)O)ccc34)cc(C(=O)Nc3cccc4cc(S(=O)(=O)O)ccc34)c2)cc1` [Compound 41, 5-({3-[2-(4-methoxyphenyl)acetylamino]-5-[N-(6-sulfonaphthyl)carbamoyl]phenyl}carbonylamino)naphthalene-2-sulfonic acid], the “Activity (% Control)” value in assay [1] is listed as 136.6 % Control. The same measure, in the same setting: in the case of `Cc1ccc(NC(=O)Nc2cc(C(=O)Nc3cccc4cc(S(=O)(=O)O)ccc34)cc(C(=O)Nc3cccc4cc(S(=O)(=O)O)ccc34)c2)cc1` [Compound 62, 5-[(3-{[(4-methylphenyl)amino]carbonylamino}-5-[N-(6-sulfonaphthyl)carbamoyl]phenyl)carbonylamino]naphthalene-2-sulfonic acid] it was 102.8 % Control; in that of `O=C(Nc1cc(C(=O)Nc2cccc3cc(S(=O)(=O)O)ccc23)cc(C(=O)Nc2cccc3cc(S(=O)(=O)O)ccc23)c1)c1cccnc1` [Compound 36, 5-({3-(3-pyridylcarbonylamino)-5-[N-(6-sulfonaphthyl)carbamoyl]phenyl}carbonylamino)naphthalene-2-sulfonic acid], 123.2 % Control; in that of `O=C(Nc1cccc2cc(S(=O)(=O)O)ccc12)c1cc(NC(=O)c2c(Cl)ccc(Cl)c2C(=O)O)cc(C(=O)Nc2cccc3cc(S(=O)(=O)O)ccc23)c1` [Compound 20], 84.9 % Control. The same measure, in the same setting: in the case of `O=C(Nc1cccc2cc(S(=O)(=O)O)ccc12)c1cc(NS(=O)(=O)c2ccc(F)cc2)cc(C(=O)Nc2cccc3cc(S(=O)(=O)O)ccc23)c1` [Compound 51, 5-[(3-{[(4-fluorophenyl)sulfonyl]amino}-5-[N-(6-sulfonaphthyl)carbamoyl]phenyl)carbonylamino]naphthalene-2-sulfonic acid] it was 133.0 % Control; in that of `O=C(Nc1cc(C(=O)Nc2cccc3cc(S(=O)(=O)O)ccc23)cc(C(=O)Nc2cccc3cc(S(=O)(=O)O)ccc23)c1)c1ccncc1` [Compound 35, 5-({3-(4-pyridylcarbonylamino)-5-[N-(6-sulfonaphthyl)carbamoyl]phenyl}carbonylamino)naphthalene-2-sulfonic acid], 105.9 % Control. Same read-out and setting: in the case of `O=C(Nc1cccc2cc(S(=O)(=O)O)ccc12)c1cc(NS(=O)(=O)c2cccc3ccccc23)cc(C(=O)Nc2cccc3cc(S(=O)(=O)O)ccc23)c1` [Compound 54, 5-({3-[(1-naphthylsulfonyl)amino]-5-[N-(6-sulfonaphthyl)carbamoyl]phenyl}carbonylamino)naphthalene-2-sulfonic acid] it was 46.5 % Control; in that of `O=C(Nc1cccc2cc(S(=O)(=O)O)ccc12)c1cc(NS(=O)(=O)c2ccc3ccccc3c2)cc(C(=O)Nc2cccc3cc(S(=O)(=O)O)ccc23)c1` [Compound 49, 5-({3-[(2-naphthylsulfonyl)amino]-5-[N-(6-sulfonaphthyl)carbamoyl]phenyl}carbonylamino)naphthalene-2-sulfonic acid], 109.3 % Control; in that of `O=C(O)c1ccc(C(=O)Nc2cc(C(=O)Nc3cccc4cc(S(=O)(=O)O)ccc34)cc(C(=O)Nc3cccc4cc(S(=O)(=O)O)ccc34)c2)cc1` [Compound 31, 4-(N-{3,5-bis[N-(6-sulfonaphthyl)carbamoyl]phenyl}carbamoyl)benzoic acid], 159.2 % Control.
